Experimental data taken from the supplement of paper PMC10331698.
± gives the standard deviation of the averaged measurements.

Key:
Test in all cases: level (log10 ratio to DMSO vehicle control); higher = higher biomarker level / cell amount than vehicle control
Details in all cases: in DMSO
[1] = compound: FC(F)(F)C(F)(C(F)(F)F)C(F)(F)C(F)(F)CC1CO1 [3-(Perfluoro-3-methylbutyl)-1,2-propenoxide]
Description: (§1)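 BioMAP Diversity Plus panel of 12 human primary cell co-culture systems (3C, 4H, LPS, SAg, BT, BF4T, BE3C, CASM3C, HDF3CGF, KF3CT, MyoF, Mphg). Compounds were added 1 h before stimulation and left for 24 h (MyoF 48 h; BT 72 h for soluble read-outs or 6 d for IgG). Biomarkers were read by ELISA, cytotoxicity by SRB, PBMC viability and proliferation by Alamar Blue. Each well value was divided by the mean of 8 DMSO control wells on the same plate and log10 transformed; duplicate blinded samples were tested at 4 concentrations.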

Perfluoro-1-iodohexane = compound: FC(F)(F)C(F)(F)C(F)(F)C(F)(F)C(F)(F)C(F)(F)I [Perfluoro-1-iodohexane]
Description: as §1

[2] = compound: FC(F)C(F)(F)COCC1CO1 [((2,2,3,3-Tetrafluoropropoxy)methyl)oxirane]
Description: as §1

Perfluorobutanoic acid = compound: O=C(O)C(F)(F)C(F)(F)C(F)(F)F [Perfluorobutanoic acid]
Description: as §1

[3] = compound: O=C(O)C(F)(F)C(F)(F)OC(F)(F)F [Perfluoro-3-methoxypropanoic acid]
Description: as §1

[4] = compound: O=S(=O)(O)C(F)(F)C(F)(F)C(F)(F)C(F)(F)C(F)(F)C(F)(F)F [Perfluorohexanesulfonic acid]
Description: as §1

[5] = compound: OCC(F)(F)OC(F)(F)C(F)(F)OC(F)(F)CO [1H,1H,8H,8H-Perfluoro-3,6-dioxaoctane-1,8-diol]
Description: as §1

Row | Test System | level (log10) ([1]; 6700 nM) | level (log10) ([1]; 20000 nM) | level (log10) (Perfluoro-1-iodohexane; 6700 nM) | level (log10) (Perfluoro-1-iodohexane; 20000 nM) | level (log10) (Perfluoro-1-iodohexane; 60000 nM) | level (log10) ([2]; 6700 nM) | level (log10) ([2]; 20000 nM) | level (log10) ([2]; 60000 nM) | level (log10) (Perfluorobutanoic acid; 6700 nM) | level (log10) (Perfluorobutanoic acid; 20000 nM) | level (log10) (Perfluorobutanoic acid; 60000 nM) | level (log10) ([3]; 6700 nM) | level (log10) ([3]; 20000 nM) | level (log10) ([3]; 60000 nM) | level (log10) ([4]; 6700 nM) | level (log10) ([4]; 20000 nM) | level (log10) ([4]; 60000 nM) | level (log10) ([5]; 6700 nM) | level (log10) ([5]; 20000 nM) | level (log10) ([5]; 60000 nM)
1 | HDF3CGF:CCL2/MCP-1 | -0.0175 ± 0.022 | -0.004 ± 0.0099 | -0.0125 ± 0.013 | -0.02 ± 0.0099 | -0.065 ± 0.034 | -0.0005 ± 0.0078 | -0.001 ± 0.013 | 0.0005 ± 0.0078 | -0.008 ± 0.021 | 0.004 ± 0.014 | 0.017 ± 0.0014 | -0.002 ± 0.0071 | -0.0055 ± 0.00071 | 0.0085 ± 0.022 | 0.009 ± 0.0057 | 0.007 ± 0.014 | 0.021 ± 0.031 | 0.0015 ± 0.0092 | 0.0025 ± 0.012 | 0.026 ± 0.047
2 | BE3C:MMP-9 | -0.005 ± 0.0071 | -0.018 ± 0.011 | 0.0075 ± 0.0092 | 0.013 ± 0.0028 | 0.001 ± 0.023 | -0.0135 ± 0.015 | -0.03 ± 0.028 | -0.005 ± 0.0028 | -0.0075 ± 0.021 | -0.007 ± 0.035 | -0.0145 ± 0.015 | 0.009 ± 0.021 | -0.002 ± 0.028 | 0.0285 ± 0.0078 | 0.0095 ± 0.026 | 0.014 ± 0.0071 | 0.0275 ± 0.00071 | -0.0115 ± 0.028 | 0.02 ± 0.04 | -0.006 ± 0.013
3 | lMphg:CD69 | -0.0115 ± 0.054 | -0.0375 ± 0.069 | -0.031 ± 0.048 | -0.0425 ± 0.06 | -0.031 ± 0.045 | -0.048 ± 0.02 | -0.001 ± 0.0071 | -0.028 ± 0.033 | 0.0505 ± 0.066 | 0.0455 ± 0.0021 | 0.087 ± 0.1 | -0.0495 ± 0.043 | -0.0005 ± 0.026 | 0.017 ± 0.04 | -0.007 ± 0.027 | 0.007 ± 0.04 | -0.036 ± 0.018 | -0.0305 ± 0.0064 | -0.041 ± 0.025 | -0.0145 ± 0.13
4 | BE3C:PAI-I | -0.0175 ± 0.0035 | -0.0075 ± 0.013 | -0.0245 ± 0.04 | -0.0045 ± 0.025 | 0.006 ± 0.037 | -0.0145 ± 0.028 | -0.015 ± 0.034 | -0.011 ± 0.018 | -0.011 ± 0.011 | -0.025 ± 0.023 | -0.0085 ± 0.0035 | -0.012 ± 0.0057 | -0.009 ± 0.018 | 0.012 ± 0.0014 | 0.0035 ± 0.00071 | -0.003 ± 0.0085 | 0.001 ± 0.0014 | -0.0105 ± 0.005 | -0.0235 ± 0.0092 | 0.01 ± 0.021
5 | KF3CT:CXCL9/MIG | 0.005 ± 0.014 | 0.001 ± 0.013 | -0.002 | -0.0125 ± 0.00071 | 0.0025 ± 0.012 | 0.007 ± 0.0085 | -0.002 ± 0.0099 | 0.0055 ± 0.0078 | 0 ± 0.0099 | 0.0015 ± 0.0021 | 0.0055 ± 0.022 | 0.0125 ± 0.0064 | 0.008 ± 0.0099 | 0.021 ± 0.0014 | 0.001 ± 0.021 | 0.002 ± 0.0071 | 0.013 ± 0.013 | 0.001 ± 0.011 | 0.006 ± 0.0085 | 0.0015 ± 0.0092
6 | HDF3CGF:CD54/ICAM-1 | -0.013 ± 0.021 | -0.014 ± 0.041 | -0.014 ± 0.0099 | -0.0225 ± 0.013 | -0.0255 ± 0.0078 | 0.001 ± 0.013 | 0.006 ± 0.0014 | -0.007 ± 0.018 | -0.005 ± 0.016 | 0.0035 ± 0.00071 | 0.001 ± 0.0057 | -0.017 ± 0.0028 | -0.0025 ± 0.005 | -0.0055 ± 0.00071 | -0.0195 ± 0.00071 | -0.0325 ± 0.00071 | -0.0345 ± 0.0035 | 0.005 ± 0.0028 | -0.0165 ± 0.005 | -0.01 ± 0.014
7 | 3C:CCL2/MCP-1 | -0.0115 ± 0.0064 | -0.0125 ± 0.025 | -0.0105 ± 0.0021 | -0.006 ± 0.02 | 0.003 ± 0.047 | 0.0045 ± 0.025 | 0.016 ± 0.028 | 0.0215 ± 0.042 | 0.007 ± 0.0071 | 0.0075 ± 0.011 | 0.028 ± 0.025 | -0.0125 ± 0.0064 | -0.0095 ± 0.00071 | 0.0165 ± 0.0064 | 0.0055 ± 0.011 | 0.007 ± 0.017 | 0.017 ± 0.031 | 0.0005 ± 0.018 | 0.009 ± 0.0028 | 0.0145 ± 0.05
8 | MyoF:CD106/VCAM-1 | 0.008 ± 0.011 | -0.0305 ± 0.019 | -0.031 ± 0.016 | -0.102 ± 0.064 | -0.337 ± 0.03 | -0.0075 ± 0.0035 | -0.025 ± 0.031 | -0.011 ± 0.044 | -0.013 ± 0.0028 | -0.007 ± 0.0014 | -0.0075 ± 0.015 | -0.014 ± 0.0042 | 0.0035 ± 0.013 | 0.001 | 0.005 ± 0.018 | 0.003 ± 0.0042 | -0.0145 ± 0.023 | 0.0075 ± 0.019 | -0.009 ± 0.0071 | -0.0045 ± 0.015
9 | CASM3C:CD141/Thrombomodulin | 0.003 | 0 ± 0.044 | 0.0055 ± 0.015 | -0.006 ± 0.0028 | -0.004 ± 0.0028 | -0.0315 ± 0.012 | 0.0015 ± 0.0092 | 0.0225 ± 0.033 | 0.0145 ± 0.021 | 0.022 ± 0.0028 | -0.0045 ± 0.037 | -0.003 ± 0.0028 | -0.014 ± 0.0099 | 0.021 ± 0.04 | 0.0005 ± 0.0064 | 0.0015 ± 0.005 | -0.0055 ± 0.022 | -0.0045 ± 0.0021 | 0.0035 ± 0.005 | 0.001 ± 0.016
10 | CASM3C:CCL2/MCP-1 | -0.003 ± 0.0071 | 0.004 ± 0.031 | 0.006 ± 0.0099 | -0.0085 ± 0.019 | 0.0015 ± 0.049 | -0.001 ± 0.0028 | -0.0105 ± 0.012 | 0.021 ± 0.075 | -0.0125 ± 0.0078 | -0.025 ± 0.027 | -0.001 ± 0.041 | -0.0175 ± 0.032 | -0.0215 ± 0.03 | 0.017 ± 0.0099 | -0.0215 ± 0.018 | -0.013 ± 0.0085 | 0.0035 ± 0.00071 | -0.026 ± 0.041 | -0.022 ± 0.017 | -0.017 ± 0.013
11 | lMphg:sIL-10 | -0.005 ± 0.028 | -0.04 ± 0.013 | -0.0575 ± 0.1 | -0.048 ± 0.0042 | -0.047 ± 0.0057 | -0.087 ± 0.024 | -0.043 ± 0.027 | 0.0075 ± 0.018 | 0.034 ± 0.013 | -0.005 ± 0.03 | -0.02 ± 0.037 | -0.0385 ± 0.013 | -0.064 ± 0.024 | -0.0485 ± 0.044 | -0.0345 ± 0.061 | -0.073 ± 0.1 | -0.239 ± 0.025 | -0.0295 ± 0.022 | -0.0355 ± 0.13 | 0.0065 ± 0.00071
12 | CASM3C:IL-6 | -0.02 ± 0.0057 | 0.007 ± 0.027 | -0.0035 ± 0.012 | -0.0055 ± 0.0021 | 0.018 ± 0.0099 | -0.029 ± 0.0071 | -0.017 ± 0.0028 | 0.0175 ± 0.043 | -0.0295 ± 0.012 | -0.0175 ± 0.021 | 0.0115 ± 0.044 | -0.001 ± 0.038 | 0 ± 0.044 | 0.0245 ± 0.0078 | -0.027 ± 0.017 | -0.0225 ± 0.0021 | -0.0025 ± 0.036 | -0.017 ± 0.011 | -0.009 ± 0.0014 | 0.0215 ± 0.056
13 | CASM3C:HLA-DR | -0.0105 ± 0.026 | -0.0185 ± 0.0092 | 0.0075 ± 0.0092 | 0.004 ± 0.0057 | 0.0095 ± 0.022 | 0.001 ± 0.0085 | -0.001 ± 0.0099 | 0.0225 ± 0.043 | 0.012 ± 0.011 | 0.0065 ± 0.015 | -0.0085 ± 0.018 | -0.035 ± 0.033 | -0.0245 ± 0.0092 | 0.004 ± 0.041 | 0.0105 ± 0.015 | -0.001 ± 0.013 | -0.008 ± 0.028 | 0.0315 ± 0.025 | 0.0075 ± 0.011 | 0.0045 ± 0.029
